Two molecules from patent US20250262230A1, “HMGB1 Inhibitors for Treatment of APOE4-related Tauopathies including Alzheimer’s Disease” (The J. David Gladstone Institutes, a testamentary trust …, priority 2022, published 2025) can be followed below.

For one assay, the system named is PS19-fE4 primary neurons. Description: Recombinant protein treatment of primary neurons, APOE sandwich ELISA of cell lysates. Particulars: 10 μg/mL recombinant protein, 24 hours, day 14 in vitro. It counts as cell-based, mouse. Here is the method: (§1) Biochemically extracted mouse hippocampal tissue lysates were diluted in Milli-Q H2O to the appropriate concentration and were run according to the provided manufacturer protocols (human APOE (Abcam); mouse HMGB1 (Novus Biologicals). Reactions of samples were read on a SpectraMaX M5 spectrophotometer (Molecular Devices) and protein concentrations were determined after interpolating a standard curve and adjusting for dilutions.
(§2) Primary cultures of neurons were prepared from prenatal E20 pups of various genotypes. After collecting pup brains, the cortex plus hippocampus were isolated and placed in ice-cold dissociation media+kyneurenic acid media (DM/KY) (DM:Na2SO4 (81.8 mM); K2SO4 (30 mM); MgCl2 (5.8 mM), CaCl2) (0.25 mM); HEPES (1 mM); glucose (20 mM); phenol red (0.001%); NaOH (0.16 mM) in distilled H2O) (KY: kynurenic acid (10 mM); phenol red (0.0025%); HEPES (5 mM); MgCl2 (100 mM); NaOH (add dropwise until pH 7.4). The resulting DM/KY media was made by combining 90% DM with 10% KY media. The isolated tissue was finely minced and then submerged in pre-warmed Papain solution (1 mL per brain) for 13 minutes while gently inverting and then submerged in trypsin inhibitor solution for 5 minutes (5 mL for up to 10 brains) while gently inverting. The tissue pellet was washed with Optimem/Glucose solution (20 mM glucose, 1 mL per brain) while gently inverting. Then, fresh Optimem/Glucose solution was added and tissue was gently triturated until separated into single cells. After filtering the cells through a 40 um cell strainer, the dissociated cells were plated at 1×10^6 cells/well of a 12-well plate or 3×10^5 cells/well of a 24-well plate in Neurobasal medium supplemented with B27, 100 U/mL^−1 of penicillin G, 100 µg/mL^−1 of streptomycin, and 1% GlutaMAX (B27/Neurobasal). Every 3-4 days, half of the media was removed and replaced with fresh B27/Neurobasal media. In some experiments, primary neurons were treated with either a Dulbecco's PBS (dPBS) vehicle or a recombinant protein of interest (10 μg/mL for one well of a 12-well plate) for 24 hours at day 14 in vitro. […]
(§3) The inventors hypothesized that astrocytic APOE4 may regulate neuronal APOE4 expression by promoting the release of these factors that activate the neuronal ERK pathway, leading to increased neuronal APOE4 expression. […] The APOE protein levels were then quantitatively evaluated in the primary neuronal cell lysates by sandwich ELISA.
(§4) Experiments were also performed to determine whether HMGB1 is a potential modulatory factor of neuronal APOE4 expression. As such, primary neurons isolated from PS19-fE4/GFAP-Cre and PS19-fE4 mice were treated with 10 μg/mL of recombinant HMGB1 protein or a dPBS control and the APOE protein levels were quantitatively evaluated in cell lysates by sandwich ELISA.
On the technique in general: An ELISA detects its analyte on a solid surface through an enzyme-linked reagent.

Assay [1] concerns PS19-fE4/GFAP-Cre primary neurons. The assay is described as above. It counts as cell-based, mouse. Particulars: 10 μg/mL recombinant protein, 24 hours, day 14 in vitro. As to the method: as §1, §2, §3, §4

On to “DPP10: recombinant DPP10 protein used to treat primary neurons”, for which the “APOE protein levels in cell lysates vs dPBS control” value in the assay on PS19-fE4 primary neurons is “no significant difference in APOE levels”. For the same molecule, the “increase in APOE protein levels relative to the dPBS control” value in assay [1] was 98%.

B1: HMGB1: recombinant HMGB1 protein used to treat primary neurons (protein, listed as Homo sapiens)
chain: MGKGDPKKPRGKMSSYAFFVQTCREEHKKKHPDASVNFSEFSKKCSERWKTMSAKEKGKFEDMAKADKARYEREMKTYIPPKGETKKKFKDPNAPKRPPSAFFLFCSEYRPKIKGEHPGLSIGDVAKKLGEMWNNTAADDKQPYEKKAAKLKEKYEKDIAAYRAKGKPDAAKKGVVKAEKSKKKKEEEEDEEDEEDEEEEEDEEDEDEEEDDDDE
Turning to B1, the “APOE protein levels in cell lysates vs dPBS control” value (in the assay on PS19-fE4 primary neurons; in assay [1]) was “A significant difference was not observed” in each case.
